One series concerns the target PDE10 (Homo sapiens (Human), UniProt Q9Y233). The series is described as follows: PDE10 assay with fluorescent substrate (IMAP, fluorescence polarization). It counts as biochemical.
For a further series, the target named is PDE 2A (Homo sapiens (Human), UniProt O00408). As to the kind of experiment: PDE 2A assay with fluorescent substrate (IMAP, fluorescence polarization). Particulars: read-out: PDE2 IC50. In kind it is biochemical.
Series [1] is described as follows: Metabolic stability in pooled liver microsomes. Particulars: 1 μM test compound, 37° C.; for Half-life - t½: human liver microsomes; for half-life at 1 μM: human, pooled liver microsomes, pH 7.6, human liver microsomes, read-out: Half-life - t½. It counts as in vitro ADME, human. As for the experimental part:
The metabolic stability of the compounds according to the invention has been investigated as follows:
The metabolic degradation of the test compound was assayed at 37° C. with pooled liver microsomes from various species. The final incubation volume of 100 μl per time point contains TRIS buffer pH 7.6 at room temperature (0.1 M), magnesium chloride (5 mM), microsomal protein (1 mg/mL for human and dog, 0.5 mg/mL for other species) and the test compound at a final concentration of 1 μM. Following a short preincubation period at 37° C., the reactions were initiated by addition of betanicotinamide adenine dinucleotide phosphate, reduced form (NADPH, 1 mM), and terminated by transferring an aliquot into solvent after different time points. […] The half-life was determined by the slope of the semi-logarithmic plot of the concentration-time profile.

Series [2] in a line: Animal experiments and sample analysis: plasma, brain and CSF concentration. It counts as in vivo. The following applies: rat, 2 h between administration and CSF sampling.
Experimental: In-vivo Effect: Animal Experiments and Sample Analysis (CSF):
Test compounds were administered to animals (rat) different routes at doses of 10.0 or 5 μmol/kg, (both oral and intravenous). After compound administration, the animals were sacrificed in a CO2 chamber and CSF samples were carefully collected by puncture of the cisterna magna. Immediately after CSF sampling, blood was taken by heart puncture and brains were dissected out. Blood was collected in EDTA-coated microvettes and plasma was prepared by centrifugation. Concentration of the test compounds in plasma, CSF or brain homogenate was determined using HPLC-MS-MS.
The target of the next series is PDE 10A (Homo sapiens (Human), UniProt Q9Y233). As to the kind of experiment: Radioactive PDE10 assay ([3H]cAMP SPA). In kind it is biochemical.
Another series has as its target hERG channel (Homo sapiens (Human), UniProt Q12809). As to the kind of experiment: hERG-channel assay (whole-cell patch clamp, transfected HEK293 cells). In kind it is cell-based. The following applies: HEK293 cells stably transfected with hERG cDNA, 35° C. The text has this: hERG (Human Ether-à-go-go-Related Gene)-Channel Assay
hERG channel inhibition of compounds of the present invention has been investigated as follows:
HEK (human embryonic kidney) 293 cells were stably transfected with hERG cDNA.
Cells were superfused with a bath solution containing (mM): NaCl (137), KCl (4.0), MgCl2 (1.0), CaCl2 (1.8), Glucose (10), HEPES (10), pH 7.4 with NaOH. Patch pipettes were made from borosilicate glass tubing using a horizontal puller and filled with pipette solution containing (mM): K-aspartate (130), MgCl2 (5.0), EGTA (5.0), K2ATP (4.0), HEPES (10.0), pH 7.2 with KOH. Resistance of the microelectrodes was in the range between 2 and 5 MΩ.
Stimulation and recording:
Membrane currents were recorded using an EPC-10 patch clamp amplifier and PatchMaster software. hERG-mediated membrane currents were recorded at 35° C., using the whole-cell configuration of the patch-clamp technique. […] During each inter-pulse interval 4 pulses scaled down by a factor of 0.2 were recorded for a P/n leak subtraction procedure. […]
The different concentrations of the test compound were applied sequentially on each of the different cells investigated. A steady state level of baseline current was measured for at least 6 sweeps prior to the application of the first test compound concentration. […]
Peak current amplitudes were measured 3 ms after the ramp to +40 mV. […]

We go through 30 compounds from patent US9085584B2, “Substituted pyrido[3,2-E][1,2,4]-triazolo[4,3-A]pyrazines for the treatment of central nervous system disorders” (Boehringer Ingelheim International GmbH, priority 2012, dated 2015).

Some results are limits rather than exact numbers.

Sequence of PDE 2A (O00408 whole entry, species assumed): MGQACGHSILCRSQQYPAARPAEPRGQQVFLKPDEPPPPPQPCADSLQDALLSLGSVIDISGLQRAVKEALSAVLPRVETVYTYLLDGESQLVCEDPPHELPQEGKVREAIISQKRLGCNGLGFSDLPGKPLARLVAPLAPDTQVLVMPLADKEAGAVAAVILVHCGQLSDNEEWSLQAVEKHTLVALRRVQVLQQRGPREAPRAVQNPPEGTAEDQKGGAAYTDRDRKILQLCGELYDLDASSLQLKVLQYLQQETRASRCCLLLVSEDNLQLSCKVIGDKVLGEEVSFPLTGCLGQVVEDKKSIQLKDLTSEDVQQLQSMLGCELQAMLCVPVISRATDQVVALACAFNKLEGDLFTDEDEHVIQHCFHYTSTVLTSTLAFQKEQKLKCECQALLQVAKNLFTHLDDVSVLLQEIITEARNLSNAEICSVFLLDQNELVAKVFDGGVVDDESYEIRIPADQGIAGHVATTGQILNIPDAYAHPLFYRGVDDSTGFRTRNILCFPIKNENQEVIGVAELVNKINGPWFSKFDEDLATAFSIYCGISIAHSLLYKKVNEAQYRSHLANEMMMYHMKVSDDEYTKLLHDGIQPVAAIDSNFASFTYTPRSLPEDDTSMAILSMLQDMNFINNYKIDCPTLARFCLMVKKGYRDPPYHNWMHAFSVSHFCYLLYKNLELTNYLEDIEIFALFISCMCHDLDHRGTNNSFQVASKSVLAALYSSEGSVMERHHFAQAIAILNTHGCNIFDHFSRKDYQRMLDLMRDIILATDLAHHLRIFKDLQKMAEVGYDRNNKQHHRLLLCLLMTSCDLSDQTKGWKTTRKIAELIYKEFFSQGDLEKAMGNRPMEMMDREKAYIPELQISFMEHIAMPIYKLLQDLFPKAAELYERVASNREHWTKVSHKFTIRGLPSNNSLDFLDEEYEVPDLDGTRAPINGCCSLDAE
Sequence of PDE10 (Q9Y233 whole entry, species assumed): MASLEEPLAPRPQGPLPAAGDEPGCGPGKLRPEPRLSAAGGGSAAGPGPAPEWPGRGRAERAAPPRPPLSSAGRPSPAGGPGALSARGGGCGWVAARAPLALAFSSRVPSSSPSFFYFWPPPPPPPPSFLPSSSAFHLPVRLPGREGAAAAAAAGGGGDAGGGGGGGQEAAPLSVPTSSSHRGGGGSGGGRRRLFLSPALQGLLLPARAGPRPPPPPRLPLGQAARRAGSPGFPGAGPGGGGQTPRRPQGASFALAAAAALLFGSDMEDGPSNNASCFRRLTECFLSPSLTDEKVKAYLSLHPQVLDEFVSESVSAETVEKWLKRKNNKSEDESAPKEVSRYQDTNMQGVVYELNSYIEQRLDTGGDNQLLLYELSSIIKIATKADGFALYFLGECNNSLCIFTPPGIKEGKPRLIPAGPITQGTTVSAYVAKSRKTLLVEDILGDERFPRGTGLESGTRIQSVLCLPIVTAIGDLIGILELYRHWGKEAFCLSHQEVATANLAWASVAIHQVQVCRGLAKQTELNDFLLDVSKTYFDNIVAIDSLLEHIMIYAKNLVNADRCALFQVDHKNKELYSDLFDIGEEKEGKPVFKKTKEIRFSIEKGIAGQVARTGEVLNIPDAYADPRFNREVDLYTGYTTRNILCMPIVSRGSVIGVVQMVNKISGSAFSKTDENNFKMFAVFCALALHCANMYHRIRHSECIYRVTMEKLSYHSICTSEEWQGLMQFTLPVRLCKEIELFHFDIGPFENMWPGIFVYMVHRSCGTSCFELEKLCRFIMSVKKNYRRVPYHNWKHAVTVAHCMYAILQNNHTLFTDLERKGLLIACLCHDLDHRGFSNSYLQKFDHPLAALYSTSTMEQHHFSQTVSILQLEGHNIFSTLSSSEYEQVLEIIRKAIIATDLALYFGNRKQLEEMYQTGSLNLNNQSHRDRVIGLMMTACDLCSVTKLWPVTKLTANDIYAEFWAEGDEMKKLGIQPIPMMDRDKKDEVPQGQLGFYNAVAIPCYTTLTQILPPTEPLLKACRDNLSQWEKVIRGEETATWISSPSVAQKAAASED
Sequence of hERG channel (Q12809 whole entry): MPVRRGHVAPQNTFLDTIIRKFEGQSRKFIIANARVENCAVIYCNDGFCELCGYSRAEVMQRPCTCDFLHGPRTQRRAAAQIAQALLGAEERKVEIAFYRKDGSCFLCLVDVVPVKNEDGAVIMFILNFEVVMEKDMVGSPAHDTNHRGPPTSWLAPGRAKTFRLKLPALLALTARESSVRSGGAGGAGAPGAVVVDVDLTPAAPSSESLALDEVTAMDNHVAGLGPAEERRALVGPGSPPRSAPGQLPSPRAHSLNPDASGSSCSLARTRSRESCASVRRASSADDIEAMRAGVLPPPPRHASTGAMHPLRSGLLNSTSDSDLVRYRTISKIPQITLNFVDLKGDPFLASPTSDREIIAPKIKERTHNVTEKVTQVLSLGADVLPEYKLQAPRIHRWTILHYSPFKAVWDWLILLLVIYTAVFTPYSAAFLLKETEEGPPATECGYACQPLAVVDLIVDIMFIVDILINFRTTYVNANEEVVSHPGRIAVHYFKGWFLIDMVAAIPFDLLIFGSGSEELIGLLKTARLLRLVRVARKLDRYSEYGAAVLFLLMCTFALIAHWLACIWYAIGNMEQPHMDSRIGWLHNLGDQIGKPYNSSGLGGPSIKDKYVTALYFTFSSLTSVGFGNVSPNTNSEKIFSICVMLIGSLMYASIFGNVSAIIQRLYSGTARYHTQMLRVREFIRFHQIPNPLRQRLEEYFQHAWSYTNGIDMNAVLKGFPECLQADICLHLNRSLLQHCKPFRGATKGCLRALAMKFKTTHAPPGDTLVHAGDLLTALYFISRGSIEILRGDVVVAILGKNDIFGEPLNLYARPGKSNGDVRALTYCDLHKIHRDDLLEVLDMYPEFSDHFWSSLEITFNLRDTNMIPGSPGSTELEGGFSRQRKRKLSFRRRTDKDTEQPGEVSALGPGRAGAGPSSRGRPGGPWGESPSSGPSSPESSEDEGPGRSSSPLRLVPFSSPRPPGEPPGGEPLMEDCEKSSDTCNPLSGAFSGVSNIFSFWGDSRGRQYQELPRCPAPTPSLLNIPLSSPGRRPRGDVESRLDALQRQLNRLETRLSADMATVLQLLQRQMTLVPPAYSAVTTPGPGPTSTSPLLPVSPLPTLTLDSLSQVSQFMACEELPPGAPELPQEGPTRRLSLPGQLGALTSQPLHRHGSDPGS
Sequence of PDE 10A (Q9Y233 whole entry, species assumed): as the sequence (Q9Y233 whole entry, species assumed) above
Experimental for PDE 10A: Into a 384 well plate (OptiPlate, white), the following components are pipetted (either manually or using automated pipetting devices): • 20 μl test-compound solution (test compound diluted in assay buffer at twofold the desired concentration) • +10 μl PDE 10A preparation (enzyme diluted in assay buffer to a concentration of 0.3 ng/μl protein) • +10 μl cAMP tracer (diluted in assay buffer to a concentration of 80 nM cAMP, specific activity ˜4 mCi/I)
After addition of all 3 components the plates are shortly spun and incubated at room temperature for 60 min. The reaction is stopped by the addition of 20 μl Yttrium SPA PDE Beads containing 18 mM zinc sulphate in water
PDE 10A protein is expressed upon baculovirus infection in SF9 cells. The cells have been incubated upon infection for ˜3 days and protein production was confirmed by Western Blot. The cells were collected by centrifugation and the pellet frozen in liquid nitrogen before it was resuspended in PBS containing 1% Triton X-100 and protease inhibitors. After 45 min incubation on ice, the cell debris was removed by centrifugation (13.000 rpm, 30 min).
Experimental for PDE 2A: Another, non radioactive, in-vitro assay was performed as follows • c) Phosphodiesterase (PDE) 2A and 10 Assay with Fluorescent Substrate Assay Principle:
The PDE reaction cleaves cAMP to AMP. The IMAP system (Molecular Device) using fluorescence polarization (FP) as detection principle was used to measure enzyme activity. A fluorescent labeled cAMP was used as substrate for the reaction, generating a labeled AMP. The fluorescent AMP binds specifically to the large M(III)-based nano-particles which reduces the rotational speed of the substrate and thus increases its polarization.
The inhibition of PDE 2A or 10 enzyme activity was assessed using IMAP-Phosphodiesterase-cAMP fluorescence labeled substrate (Molecular Devices, Order No. R7506), IMAP TR-FRET screening express (Molecular Devices, Order No. R8160, the TR-FRET component will not be used) and PDE 2A or PDE10 protein expressed upon baculovirus infection in SF9 cells.
All reactions were performed in 384 well plates, Perkin Elmer black optiplates and IMAP reaction buffer with 0.1% Tween20 (kit component)
Compounds were serial diluted in DMSO. With an intermediate dilution step with reaction buffer DMSO concentration was reduced to achieve 1% DMSO in the assay reaction. Setup of the assay started with 10 μl enzyme (˜10 ng/well, depending on prep. batch), 5 μl compound, reaction was started by addition of 5 μl labeled cAMP (30 nM, final concentration), immediately mixed for 15 seconds on a Eppendorf mixmate (2000 rpm) followed by an incubation at room temperature for 90 minutes in the dark. Reaction is stopped by adding of 60 μl binding buffer for FP/cAMP (kit component).
Each assay plate contained wells with vehicle controls (1% DMSO) for the measurement of non-inhibited reaction (=100% control) and wells without enzyme as 0% controls.

Broadly, the IC50 is the concentration at which inhibition is half-maximal. In the case of `Cc1nc2cccnc2n2c(-c3cc(C4(O)CCCOC4)ccc3Cl)nnc12` (single isomer, unassigned) [Example 112b], the IC50 at PDE10 worked out at 2500 nM; on PDE 2A, 68 nM.

Take `Cc1nc2ccc(C3CC3)nc2n2c(-c3cc(OC4COCC4O)ccc3F)nnc12` (racemic) [Example 107]: the 50% inhibitory concentration (IC50) against PDE10 was found to be 22 nM; on PDE 2A, 7 nM.

As for `Cc1nc2ccc(C(F)(F)F)nc2n2c(-c3cc(C4(O)CCCOC4)ccc3Cl)nnc12` (single isomer, unassigned) [Example 114a], on PDE 2A, the IC50 came to 9 nM.

`Cc1nc2ccc(C(F)(F)F)nc2n2c(-c3cc(C(C)(C)O)ccc3Cl)nnc12` [Example 103b] returned an IC50 at PDE10 of 10000 nM.

As to `Cc1ccc(C(C)(C)O)cc1-c1nnc2c(C)nc3ccc(C4CC4)nc3n12` [Example 75], the “Half-life - t½” value in series [1] is on record as 130 min. Besides, in series [2], the “conc CSF” value is 31 nM, the conc brain was 383 nM and the conc plasma was 1130 nM.

`Cc1nc2ccc(C(F)(F)F)nc2n2c(-c3cc(C4(O)CCOC4)ccc3Cl)nnc12` (single isomer, unassigned) [Example 115b]: the IC50 came to 10000 nM against PDE10 and 45 nM on PDE 2A.

In the case of `Cc1nc2ccc(C(F)(F)F)nc2n2c(-c3cc(OC4COCC4O)ccc3Cl)nnc12` (single isomer, unassigned) [Example 111a], the IC50 on PDE10 was 1830 nM; at PDE 2A, 65 nM.

The compound `Cc1ccc(C2(O)CCOCC2)cc1-c1nnc2c(C)nc3ccc(C(F)(F)F)nc3n12` [Example 96b] gave an IC50 against PDE10 of 10000 nM.

`Cc1nc2ccc(C(F)(F)F)nc2n2c(-c3cc(OC4COCC4O)ccc3Cl)nnc12` (single isomer, unassigned) [Example 111b]: the values for the IC50 at PDE10 and at PDE 2A were 2130 nM and 11 nM, respectively.

`Cc1nc2cccnc2n2c(-c3cc(OC4COCC4O)ccc3Cl)nnc12` (racemic) [Example 55]: the IC50 at PDE10 worked out at 5300 nM; on PDE 2A, 80 nM. Also, the “Half-life - t½” value in series [1] was found to be 130 min.

`Cc1nc2ccc(C(F)(F)F)nc2n2c(-c3cc(C4(O)CCCOC4)ccc3Cl)nnc12` (racemic) [Example 114]: the IC50 at PDE 2A was determined as 22 nM.

As to `Cc1nc2cccnc2n2c(-c3cc(OCCO)ccc3Cl)nnc12` [Example 15], the IC50 at PDE 10A was more than 10000 nM.

Broadly, the half-life is how long it takes for the measured level to halve. The compound `Cc1nc2ccc(C3CC3)nc2n2c(-c3cc(C4(O)CCOC4)ccc3Cl)nnc12` (racemic) [Example 97] gave an IC50 against PDE10 of 2140 nM. The half-life at 1 μM in series [1] worked out at 51 min.

`Cc1nc2ccc(C3CC3)nc2n2c(-c3cc(C4(O)CCCOC4)ccc3Cl)nnc12` (stereo not shown) [Example 113]: the IC50 turned out to be 3190 nM against PDE10 and 0.2 nM at PDE 2A.

Turning to `Cc1nc2cccnc2n2c(-c3cc(C4(O)CCCOC4)ccc3Cl)nnc12` (racemic) [Example 112], the values for the IC50 at PDE10 and at PDE 2A were 7000 nM and 18 nM, respectively.

For the compound `Cc1nc2ccc(C(F)(F)F)nc2n2c(-c3cc(C4(O)CCCOC4)ccc3Cl)nnc12` (single isomer, unassigned) [Example 114b], the values for the IC50 at PDE10 and on PDE 2A were 10000 nM and 11 nM, respectively.

As for `Cc1nc2ccc(C3CC3)nc2n2c(-c3cc(OC[C@H](C)O)ccc3Cl)nnc12` [Example 35a], in series [1], the “Half-life - t½” value is given as 130 min. The IC50 against hERG channel was more than 10000 nM.

On to `Cc1nc2ccc(C(F)(F)F)nc2n2c(-c3cc(C4(O)CCOC4)ccc3Cl)nnc12` (single isomer, unassigned) [Example 115a], for which, on PDE 2A, the IC50 worked out at 82 nM.

As for `Cc1nc2cccnc2n2c(-c3cc(C4(O)CCCOC4)ccc3Cl)nnc12` (single isomer, unassigned) [Example 112a], the IC50 at PDE10 is 2600 nM; at PDE 2A, 25 nM.

Take `Cc1ccc2nc(C)c3nnc(-c4cc(CO)ccc4Cl)n3c2n1` [Example 60]: at PDE 2A, the IC50 is 19 nM.

For the compound `Cc1nc2ccc(C(F)(F)F)nc2n2c(-c3cc(C4(O)CCOC4)ccc3Cl)nnc12` (racemic) [Example 115], the IC50 on PDE 2A came to 39 nM.

In the case of `Cc1nc2ccc(C(F)(F)F)nc2n2c(-c3cc(OC4COCC4O)ccc3Cl)nnc12` (racemic) [Example 111], the figures for the half-maximal inhibitory concentration (IC50) on PDE10 and on PDE 2A were 3980 nM and 22 nM, respectively.

As for `Cc1ccc(C2(O)CCC2)cc1-c1nnc2c(C)nc3cccnc3n12` [Example 73], 10000 nM corresponded to half-maximal inhibition against PDE10 (IC50). The “Half-life - t½” value in series [1] is listed as 130 min.

For the compound `Cc1nc2ccc(C(F)(F)F)nc2n2c(-c3cc(OC4COCC4O)ccc3F)nnc12` (racemic) [Example 106], the IC50 on PDE10 worked out at 1940 nM; on PDE 2A it was 160 nM.

`Cc1nc2ccc(C(C)C)nc2n2c(-c3cc(C4(O)CCC4)ccc3Cl)nnc12` [Example 91]: the half-life at 1 μM in series [1] came out at 28 min.

As for `Cc1nc2ccc(C3CC3)nc2n2c(-c3cc(C4(O)CCOCC4)ccc3Cl)nnc12` [Example 94], the half-life at 1 μM in series [1] was 38 min.

As for `Cc1nc2cccnc2n2c(-c3cc(OC4COCC4O)ccc3Cl)nnc12` (single isomer, unassigned) [Example 55a], the “Half-life - t½” value in series [1] is recorded as 130 min.

Regarding `Cc1nc2ccc(C3CC3)nc2n2c(-c3cc(OCC(C)(C)O)ccc3Cl)nnc12` [Example 45], the “Half-life - t½” value in series [1] worked out at 130 min.

On to `Cc1ccc(CCC(C)(C)O)cc1-c1nnc2c(C)nc3ccc(C4CC4)nc3n12` [Example 68], for which the half-life at 1 μM in series [1] worked out at 39 min.

In the case of `Cc1ccc(OCC(C)(C)O)cc1-c1nnc2c(C)nc3ccc(C4CC4)nc3n12` [Example 48], the “Half-life - t½” value in series [1] stood at 130 min.
